Measurements from patent US20260041661A1, “THREE-COMPONENT PRODRUG, PHARMACEUTICAL COMPOSITION THEREOF, AND MEDICAL USE THEREOF” (J2H BIOTECH INC., priority 2022, published 2026).
Structures can show the parent of a compound that is named as a salt.

Columns and labels:
[1] = tested on: CD4 T cells, CD8 T cells, Th1 cells and Th17 cells; test: Immune cell infiltration in EAE mice by flow cytometry; type: in vivo, C57BL/6 mice; settings: for CD8 T Cell (%) / CD4 T Cell (%): tissue not given; for CD8 T Cell (%): vehicle group 16.0; for CD4 T Cell (%): vehicle group 23.2; for Th17 Cell (%): vehicle group 12.4; for Th1 Cell (%): vehicle group 15.4
[2] = tested on: EAE mice (experimental autoimmune encephalomyelitis); test: Efficacy in EAE animal model of multiple sclerosis: clinical score; type: in vivo, C57BL/6 mice; settings: for Clinical Score (Day 21): day 2-21, score 0 to 5, vehicle group 3.2
prostaglandin D2 (PGD2) = test: Toxicity evaluation: flushing side effect by blood prostaglandin D2 concentration (ELISA); type: in vivo; settings: C57BL6 male mice, 165.6 mg/kg vs DMF 60 mg/kg, 5 minutes after administration
Protocol: The flushing phenomenon was confirmed through analysis of the concentration of prostaglandin D2 (PGD2) in the blood. PGD2 is a bio-derived substance closely related to the flushing phenomenon, and the concentration analysis of PGD2 in the blood is known as a standard test method for predicting the side effects of drugs. (The journal of pharmacology and experimental therapeutics, 2008, 327(3), 665.) The test method was conducted by dividing C57BL6 male mice into three groups as test animals. […] PGD2 present in the collected blood was measured using an Elisa kit (#CSB-E14022m, CUSABIO).

[3] = RRMS patients, DRF 462 mg twice daily for 5 weeks; cited from earlier work
[4] = cited from earlier work
[5] = EVOLVE-MS-1 phase 3 clinical program

COC(=O)/C=C/C(=O)OC [Dimethyl fumarate]
CD8 T Cell (%) ([1]; DMF 30 mpk): 8.8%
CD4 T Cell (%) ([1]; DMF 30 mpk): 13.1%
Th17 Cell (%) ([1]; DMF 30 mpk): 10.1%
Th1 Cell (%) ([1]; DMF 30 mpk): 10.2%
CD8 T Cell (%) ([1]; DMF 60 mpk): 8.5%
CD4 T Cell (%) ([1]; DMF 60 mpk): 13.8%
Th17 Cell (%) ([1]; DMF 60 mpk): 6.3%
Th1 Cell (%) ([1]; DMF 60 mpk): 7.9%
Clinical Score (Day 21) ([2]; DMF 30 mpk oral twice a day): 2.3
Clinical Score (Day 21) ([2]; DMF 60 mpk oral twice a day): 1.3
Severity of the disease (clinical score) vs negative control ([2]; low (G3, 30 mg/kg) and high (G4, 60 mg/kg) dose): significantly reduced the severity of the disease

COC(=O)/C=C/C(=O)Oc1ccc(COC(=O)c2ccccc2OC(C)=O)cc1 [Example 1, 4-((acetoxybenzoyloxy)methyl)phenyl Methyl Fumarate]
Infiltration rate of CD4 and CD8 T cells in the lymph nodes compared to disease-induced group (G2) ([1]; FIG. 1, low-dose (G5) and high-dose (G6)): significant decrease
Infiltration rate of CD4 and CD8 T cells in the central nervous system compared to disease-induced group (G2) ([1]; FIG. 2, low-dose (G5) and high-dose (G6)): significant decrease
Infiltration rate of Th1 and Th17 cells in the lymph nodes compared to disease-induced group (G2) ([1]; FIG. 3, low-dose (G5) and high-dose (G6)): decrease
CD8 T Cell (%) ([1]; chemical formula 1 82.8 mpk): 7.8%
CD4 T Cell (%) ([1]; chemical formula 1 82.8 mpk): 11.2%
Th17 Cell (%) ([1]; chemical formula 1 82.8 mpk): 8.8%
Th1 Cell (%) ([1]; chemical formula 1 82.8 mpk): 8.8%
CD8 T Cell (%) ([1]; chemical formula 1 165.6 mpk): 4.7%
CD4 T Cell (%) ([1]; chemical formula 1 165.6 mpk): 6.5%
Th17 Cell (%) ([1]; chemical formula 1 165.6 mpk): 7.5%
Th1 Cell (%) ([1]; chemical formula 1 165.6 mpk): 6.4%
Decrease of blood PGD2 compared to the group administered with dimethyl fumarate (prostaglandin D2 (PGD2)): 76.6%
Clinical Score (Day 21) ([2]; chemical formula 1 82.8 mpk oral twice a day): 2.0
Clinical Score (Day 21) ([2]; chemical formula 1 165.6 mpk oral twice a day): 1.5
Clinical score improvement ([2]; low dose (G5, 82.8 mg/kg) and high dose (G6, 165.6 mg/kg)): significant clinical score improvement effects

COC(=O)/C=C/C(=O)OCCN1C(=O)CCC1=O [diroximel fumarate]
Diarrhea, frequency reported [3]: 15.4%
Flushing, frequency reported [3]: 32.8%
Nausea, frequency reported [3]: 14.6%
Subjects who discontinued administration [4, 5]: 14.9%
Subjects who discontinued due to drug-induced side effects [4, 5]: 6.3%
Incidence of gastrointestinal side effects (GI TEAEs) ([4]; all patients administered DRF, phase 3 clinical trials): more than 30%
Decrease of incidence of gastrointestinal side effects compared to DMF group ([4]; phase 3 clinical trials, vs the 40% incidence with DMF): 10%
